Results on six molecules are retold here after patent publication US20160340652A1, “CULTURE MEDIUM FOR STEM CELL DIFFERENTIATION” (The USA, as represented by the Secretary, Dept. of Health …, priority 2013, published 2016).

Assay [1] deals with hPSCs. Put plainly: Cardiomyocyte differentiation in monolayer in E8 basal medium, CTNT/NKX2.5 flow cytometry and staining. In kind it is cell-based, human. To be noted: for efficiencies of cardiac differentiation: different WNT inhibitors in the presence of heparin, CTNT FACS, 10 days. From the text: (§1) Cardiomyocyte differentiation in monolayer: When hPSCs had grown to 80-90% confluent, 2-3 days after plating, the medium was changed from E8 to differentiation basal medium, which contains E8 basal medium (DMEM F-12, L-ascorbic acid, Selenium, Transferrin, and NaHCO3), 1× Chemically Defined Lipid Concentrate (100×, Life Technologies, 11905-031; a commercially-available lipid mixture of Arachidonic Acid, Cholesterol, DL-α-Tocopherol Acetate, Ethyl Alcohol 100%, Linoleic Acid, Linolenic Acid, Myristic Acid, Oleic Acid, Palmitic Acid, Palmitoleic Acid, Pluronic F-68, Stearic Acid, Tween 80™) and 1× Pen Strep (Life Technologies, 15140-122). That day was defined as day 0. CHIR99021 (5 uM, Tocris, 4423) was added into differentiation basal medium at day 0 for 24 hrs. IWP2 (3 uM, Tocris, 3533) was added from day 2 to day 5. Heparin was added into the medium at indicated dosages and timeline. Insulin (20 ug/ml, Sigma, 19278) was added into differentiation basal medium to maintain cardiomyocytes from day 7 onward. The medium was changed daily until day 7, and then changed every 2-3 days from day 7 onward. The growth factors, inhibitors, and enzymes used in culture were: Activin A (10 ng/ml, R&D, 338-AC/CF), BMP4 (10 ng/ml, R&D, 314-BP/CF), FGF2 (100 ng/ml, Peprotech, 100-18B), TGFβ1 (1.74 ng/ml, R&D, 240-B/CF), Dorsomorphin (3 μM, Stemgent, 04-0024), LDN-193189 (0.1 μM, Stemgent, 04-0074), PD0325901 (1 μM, Stemgent, 04-0008), SB431542 (3 μM, Selleckchem, s1067), Heparin (Sigma, H3149), Heparinase I (New England Biolabs, P0735S).
Immunofluorecence staining: Cells cultured in monolayer were fixed in 2% PFA for 10 minutes at room temperature, washed with PBS and permeabilized with 0.2% Triton X-100/PBS for 3 minutes. After successive washes in PBS, the cells were blocked in 10 mg/ml BSA for 30 minutes and incubated with primary antibody for 1 hour at room temperature. Cells were then washed 3 times with PBS for 5 minutes and incubated with secondary antibodies (Alexa 488 or 594-conjugated) for 1 hour. DAPI was applied for nuclei staining. The following primary antibodies were used for immunofluorescence: alpha actinin (mouse, 1:1000, A7811, Sigma), CTNI (cardiac troponin I, rabbit, 1:200, sc-15368, Santa Cruz), CTNT (cardiac troponin T, mouse, CT3, 1:1000, DSHB), Desmin (mouse, 1:100, M0760, DaKo) NKX2.5 (rabbit, ab35842; 1:200, Abcam).
Flow cytometry assay: Cells differentiated for 10 days in monolayer were dissociated with TrypLE (Invitrogen) for 5 minutes. Single cells were washed off and suspended by DMEM/10% FBS followed by centrifugation. The pellets were washed by PBS once and fixed by 2% PFA for 5 minutes. After washing with PBS and centrifuging, permeabilization was performed by 0.3% Triton X-100 for 3 minutes. The cells were centrifuged and re-suspended with 1% BSA to block unspecific binding of antibody, followed by incubation with primary antibodies (diluted in 1% BSA) for 1 hour. After washed, the cells were incubated with second antibodies conjugated with FITC or PE (Invitrogen, 1:1000 diluted in PBS) for 30 minutes. The cells were washed once and suspended in PBS for the flow cytometry assay.
The inventors developed an E8 basal medium (consisting of E8 media without NaHCO3, insulin, bFGF, or TGFβ; i.e., containing DMEM/F-12, L-ascorbic acid, selenium, and transferrin). This E8 basal medium was used in a differentiation protocol for human H1 ESCs with initial WNT activation (using GSK3β inhibitor, CHIR99021) applied to the cells in culture at days 0-1 (i.e., days following initiation of the stem cell differentiation protocol; day 0 is the day on which the stem cell differentiation protocol begins when the previously plated cells reach at least 75% confluence and the specific cell culture media are applied to the cells to being the cardiomyocyte differentiation protocol, day 1 is the next day in which specific media may be applied to the cells, and day 2 is the following day, etc.). […]

Assay [2] has as its system Brachyury (T), Wnt3A, Axin2, KDR, GATA4. Description: Real-time PCR of stage-specific marker expression during cardiac differentiation. In kind it is cell-based, human. The procedure:
Real-time PCR: RNA was purified using TRI Reagent™ Solution according to Ambion's protocol. Residual DNA was removed using the TURBO DNA-Free™ kit. Reverse transcription was carried out with Maxima H Minus Reverse Transcriptase (Thermo Scientific) primed with Poly N15-mer (Eurofins) with the recommended protocol. Prior to PCR, RNA template was removed with addition of Ambion Ribonuclease H from E. coli. Real-time PCR was performed on the BIO-RAD CFX96 using SsoAdvanced™ Universal SYBR® Green Supermix. PCR primers were listed in the supplementary table.
To investigate the function of heparin in mesoderm determination and cardiac specification, stage-specific marker expression levels were measured by qPCR (FIG. 33).
For orientation: Quantitative PCR measures a nucleic acid by following its amplification.

Assay [3] has as its system H1 ESCs. Description: Live cell number yield after 10 days differentiation. It is filed as cell-based, human. The conditions noted are these: WNT inhibitor in the presence of heparin.
From the text: as §1, with “The growth factors, inhibitors, and enzymes used in culture were: Activin A (10 ng/ml, R&D, 338-AC/CF), BMP4 (10 ng/ml, R&D, 314-BP/CF), FGF2 (100 ng/ml, Peprotech, 100-18B), TGFβ1 (1.74 ng/ml, R&D, 240-B/CF), Dorsomorphin (3 μM, Stemgent, 04-0024), LDN-193189 (0.1 μM, Stemgent, 04-0074), PD0325901 (1 μM, Stemgent, 04-0008), SB431542 (3 μM, Selleckchem, s1067), Heparin (Sigma, H3149), Heparinase I (New England Biolabs, P0735S).” left out

Assay [4] concerns NKX2-5, TBX5 and TNNT2. Description: qPCR of cardiac markers after Test 3 protocol differentiation. It is filed as cell-based, human. The procedure: Expression of Nkx.2, TBX5 and cTnT are shown as determined by qPCR. qPCR was performed assess relative mRNA expression of cardiac markers for cells following Test3 protocol differentiation.
Gene expression during differentiation was examined, and it was shown that the new factors affected specific gene expression during differentiation.

Assay [5] concerns Human ESCs. Put plainly: High density survival screening of human ESCs in E8 medium with additives (Alkaline Phosphatase staining). In kind it is cell-based. To be noted: for cell death and differentiation at high density: E8 medium supplemented, 5 days after initial confluence; for pluripotent stem cell survival and differentiation efficiency: E8 medium, cells near confluence, additives added, AP staining. The method, then: H1 hESCs were cultured in E8 media to 60% confluence, and then continually cultured for 2 days in E8 media with indiated additives. Alkaline Phosphatase (AP) staining was performed to show the pluripotent stem cells. Dark staining represents the survival of hESC colonies.
Additives are indicated (glycogen, glycogen+lipid+heparin). H1 and H9 hESCs were cultured in E8 media to 60% confluence, and then continually cultured for 2 days in E8 media with indicated additives. Two parallel experiments were performed in incubators in either good or bad condition.
FIGS. 6a and 6b show cell proliferation and spontaneous differentiation at high density with trehalose and CM-dextran. In FIG. 6a, HI hESCs were cultured in E8 media to >90 confluence, and then continually cultured for 5 days in E8 media with indicated additives. Phase contrast images show the survival rates of the cells. Note that most of the cells in control conditions died and few cells regrew, while Trehalose and CM-Dextran treated cells survived in high confluence but some of them started to differentiate. In FIG. 6b, qPCR of pluripotent and differentiated genes expression is shown for the samples in FIG. 6a.
First, initial screening assays were carried out with different additives. In this assay, human embryonic stem cells (ESCs) are grown to near confluence in E8 medium. The additives in the set of experiments described herein are selected from trehalose, CM-Dextran, lipid mix, heparin, glycogen and albumin. Cells that were untreated served as the controls. The protocol is set forth below:
1. Human ESCs were expanded with EDTA dissociation at 1:6 ratio.
2. E8 medium was changed every day.
3. After 2-3 days, when cell density reached around 70-80% confluency.
4. Change medium, and different treatments were applied to the cells in addition to fresh E8 every day.
5. Cells in E8 started to die 1-2 days after they reached 100% confluency.
6. Plates were stained with Alkaline Phosphatase staining (APS) kit (Vector Lab) to determine pluripotency maintenance. After a few days, the plates are stained with Alkaline Phosphatase Staining (APS). The cell viability reagent PrestoBlue can also be used to measure live cells. […]

Assay [6] relates to cardiomyocyte differentiation. Put plainly: Cell death/survival during cardiomyocyte differentiation in supplemented E8 medium (Test 1 and Test 3). In kind it is cell-based, human. To be noted: Test 1 and Test 3, cell survival at day 3. From the text:
Cell survival at day 3 is shown.

On to `Cc1ccc2nc(NC(=O)CSc3nc4c(c(=O)n3-c3ccccc3)SCC4)sc2c1` [IWP2], for which the “cardiomyocyte purity at day 10” value in assay [1] (H1 ESCs, CHIR99021 days 0-1, IWP2 days 2-5, no heparin, no albumin or B27) was not above 50%. In assay [1], the “efficiencies of cardiac differentiation” value is given as “comparable efficiencies of cardiac differentiation”. Also, the “cardiac differentiation (CTNT and NKX2.5 staining)” value in assay [1] (increasing IWP2 dosage, without heparin) is recorded as “did not significantly enhance cardiac differentiation”. The “Axin2 expression at day 5” value in assay [2] (all 5 hPSC lines) is reported as “inhibited”. Besides, the “expression of cardiac progenitor marker GATA4” value in assay [2] (qPCR, day 5, 7 different human PSC lines) is listed as “promoted”.

For the molecule `O=C(Nc1cccc2cccnc12)c1ccc(N2C(=O)[C@@H]3[C@H](C2=O)[C@@H]2C=C[C@H]3C2)cc1` [IWR1], the “efficiencies of cardiac differentiation” value in assay [1] is “comparable efficiencies of cardiac differentiation”. Also, the “cell death and cardiomyocyte yield” value in assay [3] is “caused more cell death and yielded fewer cardiomyocytes”.

Turning to `Oc1nc(-c2ccc(C(F)(F)F)cc2)nc2c1CSCC2` [XAV939], the “efficiencies of cardiac differentiation” value in assay [1] is given as “comparable efficiencies of cardiac differentiation”.

Turning to `OC[C@H]1O[C@H](O[C@H]2O[C@H](CO)[C@@H](O)[C@H](O)[C@H]2O)[C@H](O)[C@@H](O)[C@@H]1O` [trehalose, Trehalose], the “cardiomyocyte differentiation by mRNA expression of NKX2-5, TBX5 and TNNT2” value in assay [4] was “promoted cardiomyocyte differentiation”. Also, in assay [5], the “cell death and differentiation at high density” value is “little cell death, and the cells differentiated”; the “pluripotent stem cell survival and differentiation efficiency” value was “enhanced pluripotent stem cell survival and differentiation efficiency”. In assay [6], the “cell death during differentiation” value is “suppressed cell death during differentiation”.

In the case of CM-dextran, in assay [4], the “cardiomyocyte differentiation by mRNA expression of NKX2-5, TBX5 and TNNT2” value is “promoted cardiomyocyte differentiation”. Further, in assay [5], the “cell death and differentiation at high density” value is “little cell death, and the cells differentiated”; the “pluripotent stem cell survival and differentiation efficiency” value was “enhanced pluripotent stem cell survival and differentiation efficiency”. In addition, in assay [6], the “cell death during differentiation” value is listed as “suppressed cell death during differentiation”.

B1: heparinase I: bacteroides enzyme that selectively cleaves the glycosidic linkage between hexosamines and uronic acids in heparin (protein, UniProt Q05819 22-384, looked up)
Heparin lyase I: QQKKSGNIPYRVNVQADSAKQKAIIDNKWVAVGINKPYALQYDDKLRFNGKPSYRFELKAEDNSLEGYAAGETKGRTELSYSYATTNDFKKFPPSVYQNAQKLKTVYHYGKGICEQGSSRSYTFSVYIPSSFPDNATTIFAQWHGAPSRTLVATPEGEIKTLSIEEFLALYDRMIFKKNIAHDKVEKKDKDGKITYVAGKPNGWKVEQGGYPTLAFGFSKGYFYIKANSDRQWLTDKADRNNANPENSEVMKPYSSEYKTSTIAYKMPFAQFPKDCWITFDVAIDWTKYGKEANTILKPGKLDVMMTYTKNKKPQKAHIVNQQEILIGRNDDDGYYFKFGIYRVGNSTVPVTYNLSGYSETAR
In the case of B1, the “effect of heparin in the promotion of cardiac differentiation” value in assay [1] (co-treatment with heparinase I and heparin) was “dramatically blocked”. Also, in assay [1] (heparinase I with IWP2), the “cardiac cell differentiation seen with IWP2 treatment” value was “significantly suppressed”.
